Measurements as given in ChEMBL document CHEMBL1201862, “PubChem BioAssay data set” (2004).
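48-hour exposure; five concentrations; linearly interpolated endpoints. GI50: concentration for 50% inhibition of growth.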 The source made the active and inactive calls. Cut-off read from the data, not from the text of the source: active = GI50 up to about 1.1 µM and inactive = higher.

Tests used:
Assay in all cases: NCI tumour cell line growth inhibition, 48 h
786-0 = test system: 786-0
A498 = test system: A498
CCRF-CEM = test system: CCRF-CEM
HCT-116 = test system: HCT-116
HT-29 = test system: HT-29
IGROV-1 = test system: IGROV-1
K562 = test system: K562
NCI-H460 = test system: NCI-H460
OVCAR-3 = test system: OVCAR-3
OVCAR-5 = test system: OVCAR-5
SF-268 = test system: SF-268
SF-539 = test system: SF-539
SNB-75 = test system: SNB-75
UACC-62 = test system: UACC-62

Measured: GI50

CC1(C(=O)O)CCC[C@@]2(C)C1CC[C@@]1(C)c3cocc3CCC21 (stereo not given in full)
inactive: 786-0 83.6 µM | A498 > 100 µM | CCRF-CEM > 100 µM | HCT-116 72.8 µM | HT-29 > 100 µM | IGROV-1 > 100 µM | K562 40.9 µM | NCI-H460 > 100 µM | OVCAR-3 > 100 µM | OVCAR-5 > 100 µM | SF-268 > 100 µM | SF-539 > 100 µM | SNB-75 > 100 µM | UACC-62 > 100 µM

COc1ccccc1/C=C(\NC(=O)c1ccccc1)c1nc2ccc(Cl)cc2[nH]1
inactive: 786-0 27.4 µM | A498 25.4 µM | CCRF-CEM 21.7 µM | HCT-116 29 µM | HT-29 30.8 µM | IGROV-1 26.9 µM | K562 27.4 µM | NCI-H460 33.8 µM | OVCAR-3 18.5 µM | OVCAR-5 38 µM | SF-268 30.3 µM | SF-539 56.2 µM | SNB-75 22.4 µM | UACC-62 17.5 µM

CC1/C=C/[C@@]2(C)CCC(C(C)(C)O)C2C(O)C[C@](C)(O)/C=C/C1 (stereo not given in full)
inactive: 786-0 21.7 µM | A498 > 100 µM | CCRF-CEM > 100 µM | HCT-116 > 100 µM | HT-29 > 100 µM | IGROV-1 > 100 µM | K562 65.9 µM | NCI-H460 > 100 µM | OVCAR-3 > 100 µM | OVCAR-5 > 100 µM | SF-268 > 100 µM | SF-539 > 100 µM | SNB-75 > 100 µM | UACC-62 > 100 µM

CCCCCCCCCCCCCC(=O)OCC1OC(OC)C(NC(=O)N(CCCl)N=O)C(O)C1O (stereo not given)
inactive: 786-0 2.59 µM | A498 27.1 µM | CCRF-CEM 10.3 µM | HCT-116 14.3 µM | HT-29 19.9 µM | IGROV-1 29.6 µM | K562 12.5 µM | NCI-H460 4.93 µM | OVCAR-3 24.9 µM | OVCAR-5 25.6 µM | SF-268 7.96 µM | SF-539 3.56 µM | SNB-75 8.89 µM | UACC-62 1.97 µM

Nc1nc[n+](Cc2ccccc2)c2ncn(Cc3ccccc3)c12
inactive: 786-0 > 100 µM | A498 55.1 µM | CCRF-CEM > 100 µM | HCT-116 37.9 µM | HT-29 31.6 µM | IGROV-1 > 100 µM | K562 37.7 µM | NCI-H460 > 100 µM | OVCAR-3 38.6 µM | OVCAR-5 > 100 µM | SF-268 > 100 µM | SF-539 > 100 µM | SNB-75 34.9 µM | UACC-62 32.4 µM
